The values below come from PMC9464843, “Escitalopram co-prescription in anastrozole-treated breast cancer patients” (Northern Clinics of Istanbul, 2022).

Molecules are shown by their SMILES. Like-named read-outs stand apart in the source and are kept apart here.

One data set deals with serum estradiol. The data set can be described thus: Serum estradiol levels before and after escitalopram. The class given is in vivo, human (post-menopausal breast cancer patients). The procedure:
(§1) Data on age, body mass index (BMI; kg/m^2), stage of tumor, previous anti-neoplastic treatments, and concomitant medications were collected in each patient at study enrollment. Blood samples were collected twice, before and 1-month after the onset of escitalopram treatment to analyze change in plasma anastrozole as well as estradiol levels under escitalopram treatment. Anastrozole levels were also analyzed with respect to baseline characteristics including age (≤57 years vs. >57 years), BMI (≤29.9 kg/m^2 vs. >29.9 kg/m^2), radiotherapy (left vs. right breast, the side indicates the affected organs, none), chemotherapy (applied vs. none), tamoxifen (applied vs. none), tumor stage, estradiol levels (≤10 pg/mL vs. >10 pg/mL), concomitant medications (present vs. none) and in patients discontinued versus continued 1-month escitalopram treatment.

For data set [1] the following is noted: female, human, in vivo.
Experimental: (§2) A total of 24 operated post-menopausal breast cancer patients who were co-prescribed with escitalopram while taking anastrozole for at least 1 month were included in this study. The inclusion criteria were being on anastrozole treatment (1 mg/day) for at least 1 month (30±2 days), being younger than age of 75, having no implementation of radiotherapy or chemotherapy in the past 3 months before the study enrollment and having normal renal and hepatic functions.
(§3) Plasma anastrozole levels were measured twice, once before and once 1 month (30±2 days) after the onset of escitalopram by high-performance liquid chromatography (HPLC). The blood samples were centrifuged at 4500 g for 5 min within the 1 hour following the sampling and stored at -80°C until analysis. The plasma samples were extracted by using diethyl ether:dichloromethane (80:20, v:v) and high-performance liquid chromatography analyses were performed in Agilent Triple Quadrupole Mass Spectrometry system. A reverse phase C18 column (poroshell SB-C18, 2.7µm, 3.0 × 100 mm) was used within the system. The mobile phase was comprised of 5 mM ammonium acetate and acetonitrile at a ratio of 15:85 (v:v). Tolterodine was used as an internal standard. The external standard calibration interval was 0.5–50 ng/mL (r^2: 0.9930). Before analysis, 5 mL venous blood samples were collected into Na-EDTA-containing glass tubes and the blood samples were centrifuged at 4500 g for 5 min within an hour following the sampling and stored at -80°C until analysis.
(§4) The time between the last dose of anastrozole and blood sampling was recorded. As there was a variation between the last anastrozole dose and the blood sampling time, the maximum plasma concentrations (Cmax) were extrapolated by using the following pharmacokinetic formula:
The conditions of data set [2]: breast cancer patients, cited from earlier work.
A short description of another data set: clinical. The settings on record: female, human, in vivo.
For data set [3] the following is noted: cited from earlier work.
For data set [4], the system named is CYP2D6. The settings on record: cited from earlier work; for Ability to inhibit the CYP2D6 enzyme: SSRI antidepressants.
The nature of data set [5]: Liver and kidney functions after escitalopram. Type of data set: in vivo, human (post-menopausal breast cancer patients). The settings on record: continuers n=17; 1 month escitalopram with anastrozole.
Data set [6] in a line: Completion / discontinuation of 1-month escitalopram treatment. The settings on record: n=24. The class given is in vivo, human (post-menopausal breast cancer patients). On the procedure: as §1
Patients were on anastrozole (1 mg/day) for at least 1 month (30±2 days), while escitalopram was initiated with a dose of 10 mg/day for the first 7 days and then the dose was gradually elevated to 20 mg/day to enable tolerance.

The subject of the next data set is CYP2C19. On the set-up: method as in PMID 11454728. The settings on record: cited from earlier work.
A further data set deals with CYP3A4. On the set-up: method as in PMID 11454728. The settings on record: cited from earlier work.
Data set [7] deals with CYP2D6. On the set-up: method as in PMID 11454728. The settings on record: cited from earlier work.
Another data set has as its system CYP 1A2. On the set-up: method as in PMID 17375980. The settings on record: cited from earlier work.
In the next data set the test system is CYP 2C9. On the set-up: method as in PMID 17375980. The settings on record: cited from earlier work.
The subject of a further data set is CYP 2C19. On the set-up: method as in PMID 17375980. The settings on record: cited from earlier work.
The next data set has as its system CYP 3A4. On the set-up: method as in PMID 17375980. The settings on record: cited from earlier work.
The next data set concerns adrenergic receptors. On the set-up: method as in PMID 16266205. The settings on record: cited from earlier work.
For another data set, the system named is cholinergic receptors. On the set-up: method as in PMID 16266205. The settings on record: cited from earlier work.
Another data set has as its system histaminergic receptors. On the set-up: method as in PMID 16266205. The settings on record: cited from earlier work.
For data set [8], the system named is depression-related symptoms. On the set-up: method as in PMID 22142651. The settings on record: escitalopram 5–20 mg/day; breast cancer patients; cited from earlier work.
On the set-up of data set [9]: method as in earlier work. The settings on record: escitalopram 20 mg daily for 12 weeks; hot flushes; cited from earlier work.
The mark [10] stands for this setting: under anastrozole 1 mg/day, n=24.

Experimental for clinical: as §2, §3, §4

Consider `CC(C)(C#N)c1cc(Cn2cncn2)cc(C(C)(C)C#N)c1` [Anastrozole, anastrozole], for which, in the data set with serum estradiol (setting [10]), the “Patients with serum estradiol levels >10 pg/mL” value worked out at 25% and the “Patients with serum estradiol levels ≤10 pg/mL” value is listed as 75%. In addition, in data set [1], the “Basal plasma anastrozole level” value is 52.2 ng/mL and the “Plasma anastrozole, post-escitalopram” value is on record as 31.9 ng/mL. Besides, the “Plasma anastrozole, post-escitalopram” value in [1] (1 month) was determined as 27.9 ng/mL. Further, in data set [2] (past studies), the “Anastrozole concentrations, inter-individual range” value is 0.0 to 98.8 ng/mL. In [2] (previous studies), the “Anastrozole plasma steady-state concentration, mean” value was 37.4 ng/mL and the “Anastrozole plasma steady-state concentration, median” value is listed as 32.2 ng/mL. In “clinical” (Plasma anastrozole levels, range), this compound registered a concentration at 1 month of 9.1 to 57 ng/mL. The same compound displayed a concentration at 1 month in “clinical” (Plasma anastrozole, post-escitalopram) of 40.4 ng/mL.
Take `NC(=O)N1c2ccccc2C=Cc2ccccc21` [Carbamazepine]: the “Carbamazepine clearance, non-obese versus obese patients” value in [3] is recorded as “marginally higher”. The “Carbamazepine clearance after major weight loss” value in data set [3] (six obese patients) is given as “significantly increased”.
`CN(C)CCCC1(c2ccc(F)cc2)OCc2cc(C#N)ccc21` (stereo not drawn) [citalopram]: in the data set with CYP2D6 [4], the “Ability to inhibit the CYP2D6 enzyme” value is “weak inhibition”.
As for `CN(C)CCC[C@@]1(c2ccc(F)cc2)OCc2cc(C#N)ccc21` [escitalopram], in the data set on serum estradiol (continuers n=17, 1 month escitalopram with anastrozole), the “Change in estradiol levels after escitalopram administration” value is “no change”. Besides, the “Change in liver and kidney functions after escitalopram administration” value in [5] is on record as “No significant change”. Besides, the “Patients who completed the 1-month escitalopram treatment” value in [6] is listed as 70.8%. In data set [6] (10 mg/day first 7 days), the “Patients who discontinued escitalopram within the 1st week of treatment” value turned out to be 29.2%. The “Share of CYP2C19 in bio-transformation of escitalopram” value in the data set with CYP2C19 is given as 37%. In the data set on CYP3A4, the “Share of CYP3A4 in bio-transformation of escitalopram” value was 35%. Besides, the “Share of CYP2D6 in bio-transformation of escitalopram” value in the data set with CYP2D6 [7] is recorded as 28%. For the same compound, in the data set with CYP2D6 [4], the “Ability to inhibit the CYP2D6 enzyme” value was “weak inhibition” and the “Inhibition of CYP 2D6” value is “weak or negligible inhibition”. The “Inhibition of CYP 1A2” value in the data set on CYP 1A2 is recorded as “weak or negligible inhibition”. Also, in the data set with CYP 2C9, the “Inhibition of CYP 2C9” value was “weak or negligible inhibition”. In addition, the “Inhibition of CYP 2C19” value in the data set on CYP 2C19 is given as “weak or negligible inhibition”. Besides, the “Inhibition of CYP 3A4” value with CYP 3A4 is listed as “weak or negligible inhibition”. In the data set with adrenergic receptors, the “Affinity for adrenergic receptors” value was “low affinity”. Also, the “Affinity for cholinergic receptors” value in the data set on cholinergic receptors is given as “low affinity”. For the same compound, the “Affinity for histaminergic receptors” value in the data set on histaminergic receptors is given as “low affinity”. Also, the “Time to amelioration of depression-related symptoms” value in data set [8] is on record as no more than 1 week. In addition, in data set [9], the “Patients who discontinued treatment due to side effects such as nausea and somnolence” value was 14%.
For `CNCCC(Oc1ccc(C(F)(F)F)cc1)c1ccccc1` (stereo not drawn) [fluoxetine], the “Ability to inhibit the CYP2D6 enzyme” value with CYP2D6 [4] is “strong inhibition”.
Consider `Fc1ccc([C@@H]2CCNC[C@H]2COc2ccc3c(c2)OCO3)cc1` [paroxetine], for which, in the data set with CYP2D6 [4], the “Ability to inhibit the CYP2D6 enzyme” value was “strong inhibition”.
